Bridge positions count the residues as written; N and C are the ends. Square brackets hold non-standard residues; d marks the D form. Peptide text beside a SMILES is read from it. hCys = N[C@@H](CCS)C(=O)O
Biological target: Type-2 angiotensin II receptor (Sus scrofa)
Test: Displacement of [125I]-Ang II from pig uterus myometrium angiotensin II type 2 (AT2) receptor

Q: With `NC(N)=NCCC[C@H](NC(=O)[C@@H](N)CC(=O)O)C(=O)N[C@H]1CCSSCC[C@@H](C(=O)N[C@@H](Cc2c[nH]cn2)C(=O)N2CCC[C@H]2C(=O)N[C@@H](Cc2ccccc2)C(=O)O)NC(=O)[C@H](Cc2ccc(O)cc2)NC1=O` [c[Hcy3,5]Ang II] (H-DR[hCys]Y[hCys]HPF-OH; disulfide 3-5) as the molecule, how does the Ki read?
A: 2.1 nM
